This is an account of results in patent US20220380319A1 (Bial - R&D Investments, S.A., priority 2019, published 2022).

By IC50 is commonly meant the concentration at which inhibition is half-maximal. A high value points to a need for much substance. For orientation: solubility means the concentration that dissolves in the medium under given conditions. A higher solubility goes with a readily soluble substance.

In brackets after ≈: the same amount, converted by molar mass.

One data set addresses T1, acid ceramidase (Homo sapiens, UniProt Q13510).
T1 construct: Cell lysates overexpressing acid ceramidase were used as the enzyme source; expressed in transfected cells
T1 sequence (Q13510 22-395): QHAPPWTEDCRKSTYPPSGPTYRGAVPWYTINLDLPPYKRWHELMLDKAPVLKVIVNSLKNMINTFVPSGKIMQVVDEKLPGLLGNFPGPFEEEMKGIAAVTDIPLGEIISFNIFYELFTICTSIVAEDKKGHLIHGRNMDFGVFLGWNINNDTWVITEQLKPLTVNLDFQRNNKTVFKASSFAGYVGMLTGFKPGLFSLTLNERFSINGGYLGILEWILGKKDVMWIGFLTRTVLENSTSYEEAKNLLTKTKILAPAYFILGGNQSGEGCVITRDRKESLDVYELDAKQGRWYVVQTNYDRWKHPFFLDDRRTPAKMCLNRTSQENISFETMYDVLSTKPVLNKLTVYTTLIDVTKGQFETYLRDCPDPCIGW
Description: Acid ceramidase inhibition, biochemical fluorescent assay with cell lysates overexpressing acid ceramidase, substrate Rbm14-12. To be noted: substrate Rbm14-12 6.3 μM. A digest of the protocol:
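IC50 derived by four-parameter fitting of fluorescence (ex360 nm, em446 nm) produced after 1 hr in methanol/NaIO4/glycine stop buffer, pH 10.6. Reaction: 6.3 μM Rbm14-12, 1 hr RT, following 1 hr RT compound preincubation with 10 μg overexpressing-cell lysate protein in pH 4.5 NaAC/NaCl buffer.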

A short description of data set [1]: Compound solubility in water.
The mark [2] stands for this setting: pH 4.5, 1 hr preincubation at RT.

`CC(C)C#CCNC(=O)n1cnc2c(N3CC4CCC3CN4C)cccc21` (stereo not drawn) [Example 304, 4-(5-Methyl-2,5-diazabicyclo[2.2.2]octan-2-yl)-N-(4-methylpent-2-ynyl)-1H-benzo[d]imidazole-1-carboxamide] displayed an IC50 on acid ceramidase (pH 4.5) of 200 to 1000 nM. In data set [1], this molecule gave a solubility of 27 µg/mL (≈ 73.9 µM).

Turning to `Cc1ccc(CNC(=O)n2cnc3c(N4CCN(C)CC4)cccc32)cc1` [Example 323, N-(4-Methylbenzyl)-4-(4-methylpiperazin-1-yl)-1H-benzo[d]imidazole-1-carboxamide], the IC50 against acid ceramidase (pH 4.5) is under 200 nM. In addition, the solubility in data set [1] came out at 16 µg/mL (≈ 44 µM).

The molecule `CN1CCC(c2cccc3c2ncn3C(=O)NCCOc2ccccc2)CC1` [Example 45, 4-(1-Methylpiperidin-4-yl)-N-(2-phenoxyethyl)-1H-benzo[d]imidazole-1-carboxamide] displayed an IC50 at acid ceramidase (setting [2]) of under 200 nM. The amount in solution in data set [1] (solubility) came to 23.5 µg/mL (≈ 62.1 µM).

Molecule `O=C(NCc1ccccc1)n1cnc2ccccc21` [Example 17, N-Benzyl-1H-benzo[d]imidazole-1-carboxamide] registered an IC50 on acid ceramidase (setting [2]) of under 200 nM. In data set [1], this molecule had a solubility of 1.9 µg/mL (≈ 7.56 µM).

For the molecule `CCCCNC(=O)n1cnc2c(OC)cccc21` [Example 52, N-Butyl-4-methoxy-1H-benzo[d]imidazole-1-carboxamide], at acid ceramidase (setting [2]), the IC50 was under 200 nM. In data set [1], this molecule registered a solubility of 23.2 µg/mL (≈ 93.8 µM).

Take `CN1CCN(C2CN(c3cccc4c3ncn4C(=O)NCC#CC(C)(C)C)C2)CC1` [Example 360, N-(4,4-Dimethylpent-2-yn-1-yl)-4-(3-(4-methylpiperazin-1-yl)azetidin-1-yl)-1H benzo[d]imidazole-1-carboxamide]: the IC50 at acid ceramidase (setting [2]) is under 200 nM. The same molecule came in with a solubility in data set [1] of 27 µg/mL (≈ 66.1 µM).

Consider `CC(C)Oc1cccc2c1ncn2C(=O)NCCc1ccccc1` [Example 90, 4-iso-Propoxy-N-phenethyl-1H-benzo[d]imidazole-1-carboxamide], for which, on acid ceramidase (setting [2]), the IC50 is under 200 nM. This molecule registered a solubility in data set [1] of 0.3 µg/mL (≈ 0.928 µM).

Regarding `O=C(NCCc1ccccc1)n1c(OC2CC2)nc2ccccc21` [Example 34, 2-Cyclopropoxy-N-phenethyl-1H-benzo[d]imidazole-1-carboxamide], the IC50 at acid ceramidase (setting [2]) was under 200 nM. Further, in data set [1], the concentration in solution (solubility) was 0.5 µg/mL (≈ 1.56 µM).

In turn, `O=C(NCCCc1ccccc1)n1cnc2c(N3CCN(C4CC4)CC3)cccc21` [Example 150, 4-(4-Cyclopropylpiperazin-1-yl)-N-(3-phenylpropyl)-1H-benzo[d]imidazole-1-carboxamide] returned an IC50 against acid ceramidase (setting [2]) of under 200 nM. In data set [1], this molecule displayed a solubility of 1.5 µg/mL (≈ 3.72 µM).

Molecule `O=C(NCCc1ccccc1)n1cnc2nc(C(F)(F)F)ccc21` [Example 66b, N-phenethyl-5-(trifluoromethyl)-1H-imidazo[4,5-b]pyridine-1-carboxamide] returned an IC50 at acid ceramidase (setting [2]) of under 200 nM. The same molecule had a solubility in data set [1] of 12.9 µg/mL (≈ 38.6 µM).

In turn, `COc1nc2ccc(N3[C@@H]4CC[C@H]3COC4)cc2n1C(=O)NCCCc1ccccc1` [Example 237b, 6-((1R,5S)-3-oxa-8-azabicyclo[3.2.1]octan-8-yl)-2-methoxy-N-(3-phenylpropyl)-1H-benzo[d]imidazole-1-carboxamide] yielded an IC50 against acid ceramidase (pH 4.5) of under 200 nM. In addition, the solubility in data set [1] came out at 5 µg/mL (≈ 11.9 µM).

At acid ceramidase (setting [2]), `CC(C)CNC(=O)n1cnc2ccc(-c3cncs3)cc21` [Example 126b, N-iso-butyl-6-(thiazol-5-yl)-1H-benzo[d]imidazole-1-carboxamide] came in with an IC50 of 200 to 1000 nM. The concentration in solution in data set [1] (solubility) was 14 µg/mL (≈ 46.6 µM).

Turning to `CC(C)CCNC(=O)n1cnc2c(N3CCCCC3)cccc21` [Example 151, N-iso-Pentyl-4-(piperidin-1-yl)-1H-benzo[d]imidazole-1-carboxamide], the concentration for half-maximal inhibition (IC50) against acid ceramidase (setting [2]) is 200 to 1000 nM. For the same molecule, the concentration in solution in data set [1] (solubility) came to 2 µg/mL (≈ 6.36 µM).

The molecule `O=C(NCCc1ccccc1)n1cnc2cccnc21` [Example 19b, N-phenethyl-3H-imidazo[4,5-b]pyridine-3-carboxamide] returned an IC50 against acid ceramidase (setting [2]) of under 200 nM. Moreover, the solubility in data set [1] was 24.5 µg/mL (≈ 92 µM).

`O=C(NCCc1ccccc1)n1c(=O)[nH]c2cccnc21` [Example 124, 2-Oxo-N-phenethyl-1H-imidazo[4,5-b]pyridine-3(2H)-carboxamide] came in with an IC50 at acid ceramidase (setting [2]) of over 1000 nM. Moreover, the concentration in solution in data set [1] (solubility) was 4 µg/mL (≈ 14.2 µM).

As to `O=C(NCCOc1ccccc1)n1cnc2c(N3CCN4CCCC4C3)cccc21` (stereo not drawn) [Example 316, 4-(Hexahydropyrrolo[1,2-a]pyrazin-2(1H)-yl)-N-(2-phenoxyethyl)-1H-benzo[d]imidazole-1-carboxamide], the IC50 against acid ceramidase (pH 4.5) was under 200 nM. The molecule also came in with a solubility in data set [1] of 27 µg/mL (≈ 66.6 µM).

As to `CN1CCC2(CC1)CN(c1cccc3c1ncn3C(=O)NCCC#Cc1ccccc1)C2` [Example 366, 4-(7-Methyl-2,7-diazaspiro[3.5]nonan-2-yl)-N-(4-phenylbut-3-yn-1-yl)-1H-benzo[d]imidazole-1-carboxamide], on acid ceramidase (setting [2]), the IC50 was under 200 nM. In data set [1], this molecule registered a solubility of 21 µg/mL (≈ 49.1 µM).

`O=C(NCCCc1ccccc1)n1cnc2c(N3CCN4CCCC4C3)cccc21` (stereo not drawn) [Example 239, 4-(Hexahydropyrrolo[1,2-a]pyrazin-2(1H)-yl)-N-(3-phenylpropyl)-1H-benzo[d]imidazole-1-carboxamide] registered an IC50 on acid ceramidase (pH 4.5) of under 200 nM. Further, the solubility in data set [1] was determined as 17 µg/mL (≈ 42.1 µM).

Molecule `O=C(NC1CCCCC1)n1cnc2c(N3CCOCC3)cccc21` [Example 149, N-Cyclohexyl-4-morpholino-1H-benzo[d]imidazole-1-carboxamide] displayed an IC50 against acid ceramidase (setting [2]) of over 1000 nM. In data set [1], the solubility turned out to be 15 µg/mL (≈ 45.7 µM).

With `COc1nc2c(C#N)cccc2n1C(=O)NCC#CC(C)C` [Example 140, 4-Cyano-2-methoxy-N-(4-methylpent-2-ynyl)-1H-benzo[d]imidazole-1-carboxamide], on acid ceramidase (setting [2]), the IC50 was under 200 nM. In data set [1], this molecule displayed a solubility of 10 µg/mL (≈ 33.7 µM).

`CN1CCC(c2cc3ncn(C(=O)NCCc4ccccc4)c3cc2Cl)CC1` [Example 11b, 6-Chloro-5-(1-methylpiperidin-4-yl)-N-phenethyl-1H-benzo[d]imidazole-1-carboxamide] came in with an IC50 at acid ceramidase (setting [2]) of under 200 nM. The solubility in data set [1] came out at 23.1 µg/mL (≈ 58.2 µM).

With `CCCCNC(=O)n1cnc2c(C3CCN(C)CC3)cc(C)cc21` [Example 107a], the IC50 at acid ceramidase (setting [2]) lay within 200 to 1000 nM. The molecule further yielded a solubility in data set [1] of 31.7 µg/mL (≈ 96.5 µM).

On acid ceramidase (setting [2]), `O=C(NCCc1ccccc1)n1cnc2cc(-c3cccnc3)ccc21` [Example 10a, N-Phenethyl-5-(pyridin-3-yl)-1H-benzo[d]imidazole-1-carboxamide] gave an IC50 of under 200 nM. In addition, the solubility in data set [1] was 1.2 µg/mL (≈ 3.5 µM).

Consider `COc1cccc2c1ncn2C(=O)NCCC1CC1` [Example 121, N-(2-Cyclopropylethyl)-4-methoxy-1H-benzo[d]imidazole-1-carboxamide], for which the IC50 at acid ceramidase (setting [2]) is 200 to 1000 nM. In addition, the solubility in data set [1] amounted to 22.6 µg/mL (≈ 87.2 µM).

Regarding `COc1nc2cc(N3CCOCC3)c(F)cc2n1C(=O)NCCOc1ccccc1` [Example 335b, 6-fluoro-2-methoxy-5-morpholino-N-(2-phenoxyethyl)-1H-benzo[d]imidazole-1-carboxamide], on acid ceramidase (setting [2]), the IC50 was under 200 nM. Besides, in data set [1], the concentration in solution (solubility) came to 7 µg/mL (≈ 16.9 µM).

On to `N#CCCN1CCN(c2cccc3c2ncn3C(=O)NCCC2CCC(F)(F)C2)CC1` (stereo not drawn) [Example 288, 4-(4-(2-Cyanoethyl)piperazin-1-yl)-N-(2-(3,3-difluorocyclopentyl)ethyl)-1H-benzo[d]imidazole-1-carboxamide], for which the IC50 at acid ceramidase (pH 4.5) lay in the range of 200 to 1000 nM. In data set [1], this molecule registered a solubility of 26 µg/mL (≈ 60.4 µM).

The molecule `O=C(NC1CCCCC1)n1cnc2c(N3CCN(C4CC4)CC3)cccc21` [Example 148, N-Cyclohexyl-4-(4-cyclopropylpiperazin-1-yl)-1H-benzo[d]imidazole-1-carboxamide] came in with an IC50 on acid ceramidase (setting [2]) of over 1000 nM. This molecule returned a solubility in data set [1] of 3 µg/mL (≈ 8.16 µM).
